Patent US20180002320A1, “USE OF MACROCYCLIC PICOLINAMIDES AS FUNGICIDES” (DOW AGROSCIENCES LLC, priority 2014, published 2018)
Like-named read-outs stand apart in the source and are kept apart here.

Legend:
Zymoseptoria tritici = experiment: Leaf Blotch of Wheat (SEPTTR) fungicidal activity; assay type: in vivo; settings: Low Volume (121.5 g/H)
Description: Technical grades of materials were dissolved in acetone, which were then mixed with nine volumes of H2O containing 110 ppm Triton X-100. The fungicide solutions were applied onto wheat seedlings using an automated booth sprayer to run-off. All sprayed plants were allowed to air dry prior to further handling. All fungicides were evaluated using the aforementioned method for their activity vs. all target diseases, unless stated otherwise. Wheat leaf blotch and brown rust activity were also evaluated using track spray applications, in which case the fungicides were formulated as EC formulations, containing 0.1% Trycol 5941 in the spray solutions. Wheat plants (variety Yuma) were grown from seed in a greenhouse in 50% mineral soil/50% soil-less Metro mix until the first leaf was fully emerged, with 7-10 seedlings per pot. These plants were inoculated with an aqueous spore suspension of Zymoseptoria tritici either prior to or after fungicide treatments. After inoculation the plants were kept in 100% relative humidity (one day in a dark dew chamber followed by two to three days in a lighted dew chamber at 20° C.) to permit spores to germinate and infect the leaf. The plants were then transferred to a greenhouse set at 20° C. for disease to develop. When disease symptoms were fully expressed on the 1st leaves of untreated plants, infection levels were assessed on a scale of 0 to 100 percent disease severity. Percent disease control was calculated using the ratio of disease severity on treated plants relative to untreated plants.

Puccinia triticina = experiment: Wheat Brown Rust (PUCCRT) fungicidal activity; assay type: in vivo; settings: Low Volume (121.5 g/H)
Description: Technical grades of materials were dissolved in acetone, which were then mixed with nine volumes of H2O containing 110 ppm Triton X-100. The fungicide solutions were applied onto wheat seedlings using an automated booth sprayer to run-off. All sprayed plants were allowed to air dry prior to further handling. All fungicides were evaluated using the aforementioned method for their activity vs. all target diseases, unless stated otherwise. Wheat leaf blotch and brown rust activity were also evaluated using track spray applications, in which case the fungicides were formulated as EC formulations, containing 0.1% Trycol 5941 in the spray solutions. Wheat plants (variety Yuma) were grown from seed in a greenhouse in 50% mineral soil/50% soil-less Metro mix until the first leaf was fully emerged, with 7-10 seedlings per pot. These plants were inoculated with an aqueous spore suspension of Puccinia triticina either prior to or after fungicide treatments. After inoculation the plants were kept in a dark dew room at 22° C. with 100% relative humidity overnight to permit spores to germinate and infect the leaf. The plants were then transferred to a greenhouse set at 24° C. for disease to develop. Fungicide formulation, application and disease assessment followed the procedures as described in the Example A.

[1] = 24 h, 1 Day Protectant, read-out: SEPTTR 1DP disease control
[2] = 72 h, 3 Day Curative, read-out: SEPTTR 3DC disease control
[3] = 24 h, 1 Day Protectant, read-out: PUCCRT 1DP disease control
[4] = 72 h, 3 Day Curative, read-out: PUCCRT 3DC disease control

Row | Compound | pest or weed control at 121.5 g/ha (Zymoseptoria tritici; [1]) [%] | pest or weed control at 121.5 g/ha (Zymoseptoria tritici; [2]) [%] | pest or weed control at 121.5 g/ha (Puccinia triticina; [3]) [%] | pest or weed control at 121.5 g/ha (Puccinia triticina; [4]) [%]
1 | COc1ccnc(C(=O)N[C@H]2COCC[C@H](Cc3ccc(F)cc3)[C@@H](OC(=O)C(C)C)[C@H](C)OC2=O)c1OC(C)=O [Compound 75] | > 80 | < 80 | > 80 | > 80
2 | COc1ccnc(C(=O)N[C@H]2CCCC[C@@H]3OC(C)(C)O[C@H]3[C@H](C)OC2=O)c1OCOC(C)=O [Compound 33] | < 80 | > 80 | > 80 | > 80
3 | COc1ccnc(C(=O)N[C@H]2CCCC[C@H](OC)[C@@H](OCC(C)C)[C@H](C)OC2=O)c1OC(C)=O [Compound 28] | < 80 | > 80 | > 80 | > 80
4 | COc1ccnc(C(=O)N[C@H]2CCCC[C@H](CC3CCCC3)[C@@H](Oc3ccccc3)[C@H](C)OC2=O)c1OCOC(C)=O [Compound 50] | > 80 | < 80 | > 80 | > 80
5 | CCOCC(=O)OCOc1c(OC)ccnc1C(=O)N[C@H]1COCC[C@H](Cc2ccc(F)cc2)[C@@H](OCC2CC2)[C@H](C)OC1=O [Compound 78] | > 80 | < 80 | > 80 | > 80
6 | COc1ccnc(C(=O)N[C@H]2CCOC[C@H](Oc3ccccc3)[C@@H](Oc3ccccc3)[C@H](C)OC2=O)c1OCOC(C)=O [Compound 37] | > 80 | > 80 | > 80 | > 80
7 | COc1ccnc(C(=O)N[C@H]2COCC[C@H](Cc3ccc(F)cc3)[C@@H](OC(=O)C(C)C)[C@H](C)OC2=O)c1OCOC(C)=O [Compound 76] | > 80 | > 80 | > 80 | > 80
8 | C=CCO[C@@H]1[C@@H](CC2CCCC2)CCCC[C@H](NC(=O)c2nccc(OC)c2OCOC(C)=O)C(=O)O[C@H]1C [Compound 53] | – | < 80 | < 80 | –
9 | CC[C@H]1CCOC[C@H](NC(=O)c2nccc(OC)c2OC(C)=O)C(=O)O[C@@H](C)[C@@H]1OC(=O)c1ccccc1 [Compound 80] | > 80 | < 80 | > 80 | > 80
10 | CCCCO[C@H]1CCOC[C@H](NC(=O)c2nccc(OC)c2OCOC(C)=O)C(=O)O[C@@H](C)[C@@H]1OCc1ccccc1 [Compound 2] | < 80 | – | > 80 | > 80
11 | COc1ccc(CO[C@H]2[C@H](C)OC(=O)[C@@H](NC(=O)c3nccc(OC)c3OCOC(C)=O)CCOC[C@@H]2OCc2ccc(OC)cc2)cc1 [Compound 32] | – | < 80 | – | < 80
12 | COc1ccnc(C(=O)N[C@H]2CCCC[C@H](Cc3ccccc3)[C@@H](OC(=O)C(C)C)[C@H](C)OC2=O)c1OCOC(C)=O [Compound 60] | > 80 | > 80 | > 80 | > 80
13 | COc1ccc(C[C@H]2CCOC[C@H](NC(=O)c3nccc(OC)c3OCOC(=O)C(C)C)C(=O)O[C@@H](C)[C@@H]2Oc2ccccc2)cc1 [Compound 67, ((4-methoxy-2-(((3S,8S,9R,10S)-8-(4-methoxybenzyl)-10-methyl-2-oxo-9-phenoxy-1,5-dioxecan-3-yl)carbamoyl)pyridin-3-yl)oxy)methyl isobutyrate] | > 80 | < 80 | > 80 | < 80
14 | COc1ccnc(C(=O)N[C@H]2COCC[C@H](Cc3ccccc3)[C@@H](OCC(C)C)[C@H](C)OC2=O)c1OCOC(C)=O [Compound 20] | < 80 | > 80 | > 80 | > 80
15 | COc1ccc(C[C@H]2CCOC[C@H](NC(=O)c3nccc(OC)c3OC(=O)C(C)C)C(=O)O[C@@H](C)[C@@H]2Oc2ccccc2)cc1 [Compound 68] | < 80 | < 80 | > 80 | –
